Active and inactive are the calls of the source. No cut-off for these calls is given here.
Tests used:
Format in all cases: functional, cell-based
[1] = tested on: A549; experiment: Cytotoxicity against human A549 cells assessed as cell growth inhibition incubated for 48 hrs by MTT assay; conditions: A549, 48 h
[2] = tested on: HCT-116; experiment: Cytotoxicity against human HCT-116 cells assessed as cell growth inhibition incubated for 48 hrs by MTT assay; conditions: HCT-116, 48 h
[3] = tested on: SK-MEL-28; experiment: Cytotoxicity against human SK-MEL-28 cells assessed as cell growth inhibition incubated for 48 hrs by MTT assay; conditions: SK-MEL-28, 48 h
[4] = tested on: HT-29; experiment: Cytotoxicity against human HT-29 cells assessed as cell growth inhibition incubated for 48 hrs by MTT assay; conditions: HT-29, 48 h
[5] = tested on: MCF7; experiment: Cytotoxicity against human MCF7 cells assessed as cell growth inhibition incubated for 48 hrs by MTT assay; conditions: MCF7, 48 h
[6] = tested on: A549; experiment: Induction of intracellular ROS generation in human A549 cells at […] incubated for 48 hrs by […] fluorescence microscopic analysis; conditions: dose 0.47 µM
[7] = tested on: SK-MEL-28; experiment: Induction of intracellular ROS generation in human SK-MEL-28 cells at 2.26 uM incubated for 48 hrs by […] fluorescence microscopic analysis

SMILES | IC50 [1] [µM] | IC50 [2] [µM] | IC50 [3] [µM] | IC50 [4] [µM] | IC50 [5] [µM] | Activity [6] | Activity [7]
O=C1N/C(=N\CCc2ccccc2)S/C1=C1/CCNC(=O)c2[nH]ccc21 | 19.5 | 17.8 | 12.3 | 24.9 | 21 |  | 
O=c1[nH]cc(F)c(=O)[nH]1 [FLUOROURACIL] |  |  | 14.6 | 23.9 | 21.1 |  | 
O=C1N/C(=N\Cc2ccccc2)S/C1=C1/CCNC(=O)c2[nH]ccc21 | 26.9 | 49.7 | 38.4 | 36.5 | 31.1 |  | 
O=C1N/C(=N\Cc2ccc(F)cc2)S/C1=C1/CCNC(=O)c2[nH]c3ccccc3c21 | 36.5 | 30.8 | > 50 | 38 | 40.3 |  | 
COc1ccc(C/N=C2\NC(=O)/C(=C3\CCNC(=O)c4[nH]c5ccccc5c43)S2)cc1OC | 30 | 16.4 | 25.1 | > 50 | 23.7 |  | 
Cn1c2c(c3ccccc31)/C(=C1\S/C(=N/Cc3ccccc3)NC1=O)CCNC2=O | > 50 | > 50 | > 50 | > 50 | > 50 |  | 
COc1ccc(CC/N=C2\NC(=O)/C(=C3\CCNC(=O)c4[nH]ccc43)S2)cc1 | 16 | 10.8 | 7.86 | 8.14 | 6.47 |  | 
O=C1N/C(=N\Cc2ccc(Cl)cc2)S/C1=C1/CCNC(=O)c2[nH]ccc21 | > 100 | > 100 | > 100 | > 100 | > 100 |  | 
CC[C@@]1(O)C(=O)OCc2c1cc1n(c2=O)Cc2cc3ccccc3nc2-1 [CAMPTOTHECIN] | 0.47 |  | 2.26 |  |  | Active | Active
CC(C)(C)c1ccc(C/N=C2\NC(=O)/C(=C3\CCNC(=O)c4[nH]c5ccccc5c43)S2)cc1 | 19.3 | 15.9 | 8.97 | 13.6 | 9.01 |  | 
O=C1N/C(=N\CCc2ccc(F)cc2)S/C1=C1/CCNC(=O)c2[nH]c3ccccc3c21 | > 50 | > 50 | > 50 | > 50 | > 50 |  | 
COc1ccc(C/N=C2\NC(=O)/C(=C3\CCNC(=O)c4[nH]c5ccccc5c43)S2)cc1 | 3.73 | 17.5 | 9.68 | 12.3 | 6.33 |  | 
O=C1N/C(=N\Cc2ccccc2)S/C1=C1/CCNC(=O)c2[nH]c3ccccc3c21 | 48.2 | 34.4 | 29.8 | 31.8 | 31 |  | 
O=C1N/C(=N\Cc2ccc3c(c2)OCO3)S/C1=C1/CCNC(=O)c2[nH]c3ccccc3c21 | > 50 | 21.4 | > 50 | 36.5 | 31.4 |  | 
O=C1N/C(=N\Cc2ccc(C(F)(F)F)cc2)S/C1=C1/CCNC(=O)c2[nH]ccc21 | > 100 | > 100 | > 100 | > 50 | > 100 |  | 
O=C1N/C(=N\Cc2ccc(Cl)cc2)S/C1=C1/CCNC(=O)c2[nH]c3ccccc3c21 | 33.6 | 22.7 | > 50 | 39.9 | 46.8 |  | 
COc1ccc(C/N=C2\NC(=O)/C(=C3\CCNC(=O)c4c3ccn4C)S2)cc1 | > 100 | > 100 | > 100 | 32.4 | > 100 |  | 
COc1ccc(CC/N=C2\NC(=O)/C(=C3\CCNC(=O)c4[nH]c5ccccc5c43)S2)cc1 | 20.5 | 18.6 | 3.49 | 15 | 9.41 |  | 
O=C1N/C(=N\Cc2cccc(Cl)c2)S/C1=C1/CCNC(=O)c2[nH]ccc21 | 35.2 |  | 34.6 | 35.3 | 20.7 |  | 
COc1cccc2c1C(=O)c1c(O)c3c(c(O)c1C2=O)C[C@@](O)(C(=O)CO)C[C@@H]3O[C@H]1C[C@H](N)[C@H](O)[C@H](C)O1 [DOXORUBICIN] |  | 7.41 | 1.64 |  |  |  | 
O=C1N/C(=N\Cc2ccc3c(c2)OCO3)S/C1=C1/CCNC(=O)c2[nH]ccc21 | 19.9 | 4.25 | 11.2 | 16.5 | 4.31 |  | 
CC(C)(C)c1ccc(C/N=C2\NC(=O)/C(=C3\CCNC(=O)c4[nH]ccc43)S2)cc1 | 43.9 | > 100 | 23.5 | 43.4 | 18.9 |  | 
COc1ccc(C/N=C2\NC(=O)/C(=C3\CCNC(=O)c4[nH]ccc43)S2)cc1 | 18.3 | 19.4 | 12.1 | 11.5 | 6.24 |  | 
O=C1N/C(=N\Cc2cccc(Cl)c2)S/C1=C1/CCNC(=O)c2[nH]c3ccccc3c21 | 33.7 | 25.2 | 23.8 | > 50 | 28.1 |  | 
O=C1N/C(=N\Cc2ccccc2Cl)S/C1=C1/CCNC(=O)c2[nH]ccc21 | > 100 | > 50 | > 100 | > 100 | 21.2 |  | 
O=C1N/C(=N\Cc2ccc(F)cc2)S/C1=C1/CCNC(=O)c2[nH]ccc21 | 22.4 | 16.9 | 11.2 | 26 | 43.1 |  | 

Source: ChEMBL document CHEMBL5137032, “Design, synthesis of DNA-interactive 4-thiazolidinone-based indolo-/pyrroloazepinone conjugates as potential cytotoxic and topoisomerase I inhibitors” (Eur J Med Chem, 2022)
